Experimental data: patent publication US12077503B2, “Substituted cyclic amides and their use as herbicides” (FMC CORPORATION, priority 2015, dated 2024)

Key:
Format in all cases: in vivo
[1] = tested on: Kochia (Kochia scoparia); assay: Test A preemergence; conditions: for Kochia plant response rating (0 to 100 scale, 0 is no effect, 100 is complete control): visual injury approx. 10 d
Summary of the method: (§1)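 Visual injury, scored on a 0–100 scale relative to untreated controls, was recorded about 10 d after application. Treatments were a preemergence soil spray over planted seeds or a postemergence spray on plants at the one- to two-leaf stage, 2 to 10 cm tall, all in loam soil–sand blend in the greenhouse.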

[2] = tested on: barnyardgrass (Echinochloa crus-galli); assay: Test A preemergence; conditions: for Barnyardgrass plant response rating (0 to 100 scale, 0 is no effect, 100 is complete control): visual injury approx. 10 d
Summary of the method: as §1

[3] = tested on: giant foxtail (Setaria faberii); assay: Test A preemergence; conditions: for Foxtail, Giant plant response rating (0 to 100 scale, 0 is no effect, 100 is complete control): visual injury approx. 10 d
Summary of the method: as §1

[4] = tested on: pigweed (Amaranthus retroflexus); assay: Test A preemergence; conditions: for Pigweed plant response rating (0 to 100 scale, 0 is no effect, 100 is complete control): visual injury approx. 10 d
[5] = tested on: ragweed (common ragweed, Ambrosia elatior); assay: Test A preemergence; conditions: for Ragweed plant response rating (0 to 100 scale, 0 is no effect, 100 is complete control): visual injury approx. 10 d
Summary of the method: as §1

[6] = tested on: ryegrass, Italian (Italian ryegrass, Lolium multiflorum); assay: Test A preemergence; conditions: for Ryegrass, Italian plant response rating (0 to 100 scale, 0 is no effect, 100 is complete control): visual injury approx. 10 d
Summary of the method: as §1

[7] = tested on: Galium (catchweed bedstraw, Galium aparine); assay: Test A postemergence
Summary of the method: as §1

[8] = tested on: Kochia (Kochia scoparia); assay: Test A postemergence
Summary of the method: as §1

[9] = tested on: barnyardgrass (Echinochloa crus-galli); assay: Test A postemergence
Summary of the method: as §1

[10] = tested on: blackgrass (Alopecurus myosuroides); assay: Test A postemergence
Summary of the method: as §1

[11] = tested on: corn (Zea mays); assay: Test A postemergence
Summary of the method: as §1

[12] = tested on: giant foxtail (Setaria faberii); assay: Test A postemergence
Summary of the method: as §1

[13] = tested on: pigweed (Amaranthus retroflexus); assay: Test A postemergence
Summary of the method: as §1

[14] = tested on: ragweed (common ragweed, Ambrosia elatior); assay: Test A postemergence
Summary of the method: as §1

[15] = tested on: ryegrass, Italian (Italian ryegrass, Lolium multiflorum); assay: Test A postemergence
Summary of the method: as §1

[16] = tested on: wheat (Triticum aestivum); assay: Test A postemergence
Summary of the method: as §1

[17] = tested on: barnyardgrass (Echinochloa crus-galli); assay: Test B flooded paddy test; conditions: Flood, 250 g ai/ha; 0 to 100 scale where 0 is no effect and 100 is complete control; 13 to 15 d
Summary of the method: (§2)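 Visual ratings (0 none to 100 complete control) are relative to untreated plants, taken 13–15 d after treatment in a greenhouse. Test material went straight into floodwater standing 3 cm above the soil, kept constant, on plants at the 2-leaf stage.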

[18] = tested on: ducksalad (Heteranthera limosa); assay: Test B flooded paddy test; conditions: Flood, 250 g ai/ha; 0 to 100 scale where 0 is no effect and 100 is complete control; 13 to 15 d
Summary of the method: as §2

[19] = tested on: rice (Oryra sativa); assay: Test B flooded paddy test; conditions: Flood, 250 g ai/ha; 0 to 100 scale where 0 is no effect and 100 is complete control; 13 to 15 d
Summary of the method: as §2

[20] = tested on: sedge, umbrella (small-flower umbrella sedge, Cyperus difformis); assay: Test B flooded paddy test; conditions: Flood, 250 g ai/ha; 0 to 100 scale where 0 is no effect and 100 is complete control; 13 to 15 d
Summary of the method: as §2

[21] = 125 g ai/ha, Preemergence, visual injury after approximately 10 d, 0 to 100 scale where 0 is no effect and 100 is complete control
[22] = 125 g ai/ha, postemergence, visual rating after approx. 10 d, 0 to 100 scale (0 no effect, 100 complete control)
[23] = Postemergence, 500 g ai/ha, 0 to 100 scale where 0 is no effect and 100 is complete control
[24] = 500 g ai/ha, preemergence, 0 to 100 scale, 0 = no effect, 100 = complete control
[25] = 500 g ai/ha, postemergence, visual injury, 0 to 100 scale (0 no effect, 100 complete control), approx. 10 d

Row | Compound | Plant response rating, Kochia [1, 21] | Plant response rating, Barnyardgrass [2, 21] | Plant response rating, Foxtail, Giant [3, 21] | Plant response rating, Ragweed [5, 21] | Plant response rating, Ryegrass, Italian [6, 21] | Plant response rating, Galium [7, 22] | Plant response rating, Kochia [8, 22] | Plant response rating, Barnyardgrass [9, 22] | Plant response rating, Barnyardgrass [9, 23] | Plant response rating, Blackgrass [10, 22] | Plant response rating, Blackgrass [10, 23] | Plant response rating, Corn [11, 22] | Plant response rating, Corn [11, 23] | Plant response rating, Foxtail, Giant [12, 22] | Plant response rating, Pigweed [13, 22] | Plant response rating, Ragweed [14, 22] | Plant response rating, Ryegrass, Italian [15, 22] | Plant response rating, Wheat [16, 22] | Plant response rating, Barnyardgrass [17] | Plant response rating, Ducksalad [18] | further results
1 | O=C1NCC(c2cccc(C(F)(F)F)c2F)C1C(=O)Nc1ccccc1F (stereo not shown) [Compound 590] | 0 | 90 | 90 | 0 | 0 | 20 | 0 | 90 | 90 | 50 | 70 | 50 | 70 | 90 | 0 | 0 | 30 | 20 | 60 | 90 | Kochia plant response rating (0 to 100 scale, 0 is no effect, 100 is complete control) ([1]; Preemergence, 500 g ai/ha): 20; Barnyardgrass plant response rating (0 to 100 scale, 0 is no effect, 100 is complete control) ([2]; Preemergence, 500 g ai/ha): 90; Foxtail, Giant plant response rating (0 to 100 scale, 0 is no effect, 100 is complete control) ([3]; Preemergence, 500 g ai/ha): 90; Plant response rating, Pigweed [4, 21]: 0; Pigweed plant response rating (0 to 100 scale, 0 is no effect, 100 is complete control) ([4]; Preemergence, 500 g ai/ha): 0; Ryegrass, Italian plant response rating (0 to 100 scale, 0 is no effect, 100 is complete control) ([6]; Preemergence, 500 g ai/ha): 30; Plant response rating, Galium [7, 23]: 30; Plant response rating, Kochia [8, 23]: 30; Plant response rating, Foxtail, Giant [12, 23]: 90; Plant response rating, Pigweed [13, 23]: 0; Plant response rating, Ragweed [14, 23]: 0; Plant response rating, Ryegrass, Italian [15, 23]: 30; Plant response rating, Wheat [16, 23]: 70; Plant response rating, Rice [19]: 0; Plant response rating, Sedge, Umbrella [20]: 0
2 | O=C1NCC(c2cc(C(F)(F)F)ccc2F)C1C(=O)Nc1ccccc1F (stereo not shown) [Compound 593] | 0 | 90 | 90 | 0 | 0 | 0 | 0 | 90 | 90 | 50 | 60 | 30 | 70 | 90 | 0 | 0 | 0 | 0 | 60 | 80 | Kochia plant response rating (0 to 100 scale, 0 is no effect, 100 is complete control) ([1]; Preemergence, 500 g ai/ha): 0; Barnyardgrass plant response rating (0 to 100 scale, 0 is no effect, 100 is complete control) ([2]; Preemergence, 500 g ai/ha): 90; Foxtail, Giant plant response rating (0 to 100 scale, 0 is no effect, 100 is complete control) ([3]; Preemergence, 500 g ai/ha): 90; Pigweed plant response rating (0 to 100 scale, 0 is no effect, 100 is complete control) ([4]; Preemergence, 500 g ai/ha): 0; Ragweed plant response rating (0 to 100 scale, 0 is no effect, 100 is complete control) ([5]; Preemergence, 500 g ai/ha): 0; Ryegrass, Italian plant response rating (0 to 100 scale, 0 is no effect, 100 is complete control) ([6]; Preemergence, 500 g ai/ha): 50; Plant response rating, Galium [7, 23]: 20; Plant response rating, Kochia [8, 23]: 0; Plant response rating, Foxtail, Giant [12, 23]: 90; Plant response rating, Pigweed [13, 23]: 0; Plant response rating, Ragweed [14, 23]: 0; Plant response rating, Ryegrass, Italian [15, 23]: 30; Plant response rating, Wheat [16, 23]: 40; Plant response rating, Rice [19]: 15; Plant response rating, Sedge, Umbrella [20]: 0
3 | C#CCN1CC(c2cccc(C(F)(F)F)c2)C(C(=O)Nc2ccccc2F)C1=O (stereo not shown) [Compound 607] | 0 | 0 | 80 | 0 | 0 | 0 | 0 | 20 | 60 | 0 | 0 | 0 | 0 | 20 | 0 | 0 | 0 | 0 | 0 | 50 | Kochia plant response rating (0 to 100 scale, 0 is no effect, 100 is complete control) ([1]; Preemergence, 500 g ai/ha): 0; Barnyardgrass plant response rating (0 to 100 scale, 0 is no effect, 100 is complete control) ([2]; Preemergence, 500 g ai/ha): 30; Foxtail, Giant plant response rating (0 to 100 scale, 0 is no effect, 100 is complete control) ([3]; Preemergence, 500 g ai/ha): 90; Plant response rating, Pigweed [4, 21]: 0; Pigweed plant response rating (0 to 100 scale, 0 is no effect, 100 is complete control) ([4]; Preemergence, 500 g ai/ha): 0; Ragweed plant response rating (0 to 100 scale, 0 is no effect, 100 is complete control) ([5]; Preemergence, 500 g ai/ha): 0; Ryegrass, Italian plant response rating (0 to 100 scale, 0 is no effect, 100 is complete control) ([6]; Preemergence, 500 g ai/ha): 0; Plant response rating, Galium [7, 23]: 0; Plant response rating, Kochia [8, 23]: 0; Plant response rating, Foxtail, Giant [12, 23]: 60; Plant response rating, Pigweed [13, 23]: 0; Plant response rating, Ragweed [14, 23]: 0; Plant response rating, Ryegrass, Italian [15, 23]: 0; Plant response rating, Wheat [16, 23]: 20; Plant response rating, Rice [19]: 0; Plant response rating, Sedge, Umbrella [20]: 0
4 | O=C1NCC(c2ccc(F)cc2F)C1C(=O)Nc1ccccc1F (stereo not shown) [Compound 620] | 0 | 70 | 80 | 0 | 0 | 0 | 0 | 20 | 60 | 0 | 0 | 0 | 0 | 30 | 0 | 0 | 0 | 0 | 10 | 65 | Plant response rating, Kochia [1, 24]: 20; Plant response rating, Barnyardgrass [2, 24]: 80; Plant response rating, Foxtail, Giant [3, 24]: 90; Plant response rating, Pigweed [4, 21]: 0; Plant response rating, Pigweed [4, 24]: 0; Plant response rating, Ragweed [5, 24]: 0; Plant response rating, Ryegrass, Italian [6, 24]: 0; Plant response rating, Galium [7, 23]: 20; Plant response rating, Kochia [8, 23]: 0; Plant response rating, Foxtail, Giant [12, 23]: 50; Plant response rating, Pigweed [13, 23]: 0; Plant response rating, Ragweed [14, 23]: 0; Plant response rating, Ryegrass, Italian [15, 23]: 0; Plant response rating, Wheat [16, 23]: 0; Plant response rating, Rice [19]: 0; Plant response rating, Sedge, Umbrella [20]: 0
5 | C=CCOc1cccc(C2CNC(=O)C2(CC=C)C(=O)Nc2cccc(F)c2F)c1 (stereo not shown) [Compound 631] | 0 | 0 | 0 | 0 | 0 | 0 | 0 | 0 | 0 | 0 | 0 | 0 | 0 | 0 | 0 | 0 | 0 | 0 | 0 | 0 | Plant response rating, Kochia [1, 24]: 0; Plant response rating, Barnyardgrass [2, 24]: 0; Plant response rating, Foxtail, Giant [3, 24]: 0; Plant response rating, Pigweed [4, 21]: 0; Plant response rating, Pigweed [4, 24]: 0; Plant response rating, Ragweed [5, 24]: 0; Plant response rating, Ryegrass, Italian [6, 24]: 0; Plant response rating, Galium [7, 25]: 0; Plant response rating, Kochia [8, 25]: 0; Plant response rating, Foxtail, Giant [12, 25]: 0; Plant response rating, Pigweed [13, 25]: 0; Plant response rating, Ragweed [14, 25]: 0; Plant response rating, Ryegrass, Italian [15, 25]: 0; Plant response rating, Wheat [16, 25]: 0; Plant response rating, Rice [19]: 0; Plant response rating, Sedge, Umbrella [20]: 0
